Measurements reported in patent publication US8614205B2, “Glutamate receptor modulators and therapeutic agents” (priority 2009, dated 2013).
Values joined by “and” are separate entries in the source; they are usually repeats but may differ in a detail not shown here. Equal entries are not always repeated.

Tested on: hyperalgesia in partial sciatic nerve ligation rat
Assay: partial sciatic nerve ligation (PSN) model of neuropathic pain, paw withdrawal method
Type: in vivo
Details: 100 μg intrathecal; for % MPE (0-100) 1 hr / Paw withdrawal thresholds (g; raw data) 1 hr / Raw MPE (%) 1 hr / % MPE (0-100) 3 hrs / Paw withdrawal thresholds (g; raw data) 3 hrs / Raw MPE (%) 3 hrs / % MPE (0-100) 5 hrs / Paw withdrawal thresholds (g; raw data) 5 hrs / Raw MPE (%) 5 hrs / % MPE (0-100) 24 hrs / Paw withdrawal thresholds (g; raw data) 24 hrs / Raw MPE (%) 24 hrs: PSN Sx rat
Procedure: Briefly, under gas anesthesia, the skin and muscles of the thigh were reflected to expose the sciatic nerve. About one-third to one-half of the cross-sectional area of the nerve was tightly ligated using a 7-0 nylon suture. The incision was closed in layers (suture for muscle, surgical adhesive for skin). […] Treated rats were assayed at 1, 3, 5, and 24 hr using the paw withdrawal method (L. Randall and J. Selitto, 1957, Arch. Int. Pharmacodynam., 111:409-19). […] The Partial sciatic nerve ligation assay was performed at Eurofins/Product Safety Laboratories (Dayton, N.J.).
Animals were housed in cages which conform to the size recommendations in the most recent NIH Guide for the Care and Use of Laboratory Animals. […] The animals were fed Purina Rodent Chow #5012. The animals were acclimated to the facility for 7 days prior to the study. A pre-operative baseline paw withdrawal measure was collected for all rats. […] After recovery, a pre-dosing baseline paw withdrawal threshold was collected for all rats. […] Rats were lightly anesthetized and treated with test article or vehicle. Paw withdrawal thresholds were determined at one, three, five, and 24 hours post dosing. […] Briefly, under gas anesthesia, the skin and muscles of the thigh were reflected to expose the sciatic nerve. About one third to one half of the cross-sectional area of the nerve was tightly ligated using a 7-0 nylon suture. The incision was closed in layers (suture for muscle, surgical adhesive for skin). Test article or vehicle was administered by transcutaneous injection (C. Mestre et al., 1994, J. Pharm. Tox. Meth., 32:197-200). Briefly, the rat was lightly anesthetized and placed to flex the lower lumbar vertebrae. After palpating the vertebral processes, a 26 gauge needle was inserted through a vertebral interspace. The presence of a tail flick was considered validation of the needle placement; the solution was then injected. Paw withdrawal thresholds were assessed using a paw pressure device (L. O. Randall & J. J. Selitto, 1957, Arch. Int. Pharmacodyn., 111:409-19). The behavioral endpoint was defined as paw withdrawal. Data was analyzed by two-way analysis of variance (repeated measures) with Bonferroni tests at individual time points. Paw withdrawal threshold raw values were used for the analysis, and each route of administration was analyzed separately. Vehicle-treated groups were used as the statistical comparison groups.

## NCC1(CC(=O)O)CCCCC1 [Gabapentin, gabapentin, reference compound]
Group Average (N 6)
  % MPE (0-100) 1 hr: 63.2%
  Paw withdrawal thresholds (g; raw data) 1 hr: 165.0 g
  Raw MPE (%) 1 hr: 77.4%
  % MPE (0-100) 3 hrs: 43.5%
  Paw withdrawal thresholds (g; raw data) 3 hrs: 134.2 g
  Raw MPE (%) 3 hrs: 47.7%
  % MPE (0-100) 5 hrs: 17.4%
  Paw withdrawal thresholds (g; raw data) 5 hrs: 96.7 g
  Raw MPE (%) 5 hrs: −0.6%
  % MPE (0-100) 24 hrs: 16.4%
  Paw withdrawal thresholds (g; raw data) 24 hrs: 98.3 g
  Raw MPE (%) 24 hrs: 6.7%
Individual rat
  % MPE (0-100) 1 hr: 53.9% and 100.0% (3×) and 0.8% and 24.4%
  Paw withdrawal thresholds (g; raw data) 1 hr: 145 g and 250 g and 190 g and 100 g and 120 g and 185 g
  Raw MPE (%) 1 hr: 53.9% and 177.6% and 106.9% and 0.8% and 24.4% and 101.0%
  % MPE (0-100) 3 hrs: 0.0% (2×) and 34.6% (2×) and 91.7% and 100.0%
  Paw withdrawal thresholds (g; raw data) 3 hrs: 70 g and 125 g (2×) and 90 g and 165 g and 230 g
  Raw MPE (%) 3 hrs: −43.8% and 34.6% (2×) and −15.3% and 91.7% and 184.4%
  % MPE (0-100) 5 hrs: 0.0% (3×) and 43.6% and 3.8% and 56.9%
  Paw withdrawal thresholds (g; raw data) 5 hrs: 60 g and 130 g and 85 g and 100 g and 140 g and 65 g
  Raw MPE (%) 5 hrs: −49.3% and 43.6% and −16.1% and 3.8% and 56.9% and −42.7%
  % MPE (0-100) 24 hrs: 0.0% (3×) and 23.3% and 58.7% and 16.2%
  Paw withdrawal thresholds (g; raw data) 24 hrs: 85 g and 110 g and 80 g and 75 g and 135 g and 105 g
  Raw MPE (%) 24 hrs: −12.1% and 23.3% and −19.2% and −26.3% and 58.7% and 16.2%
rat
  reversing hyperalgesia: effective in reversing hyperalgesia
